Measured values from patent publication US10717733B2, “Haloallylamine indole and azaindole derivative inhibitors of lysyl oxidases and uses thereof” (PHARMAXIS LTD., priority 2016, dated 2020).

Tests used:
[1] = biological target: human recombinant SSAO/VAP-1 (Homo sapiens (Human), UniProt Q16853); assay: Inhibition of human recombinant SSAO/VAP-1 amine oxidase activity; type: biochemical; details: 30 min preincubation at 37° C., 600 μM benzylamine
Outline: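 Purified SSAO/VAP-1 (residues 34-763, expressed in CHO Lec 8 cells; 0.25 μg/mL) preincubated 30 min at 37° C with compound in 0.1 M sodium phosphate pH 7.4. Reaction mix of 600 μM benzylamine, 120 μM Amplex Red and 1.5 U/mL HRP added; fluorescence (ex 565/em 590 nm) read every 2.5 min for 30 min; IC50 from kinetic slopes over 4-11 point curves.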

[2] = biological target: Human LOXL2 (Homo sapiens (Human), UniProt Q9Y4K0); assay: LOXL2 inhibition, peroxidase-coupled Amplex Red amine oxidase assay; type: biochemical; details: 30 min preincubation at 37° C., putrescine substrate
Human LOXL2, sequence (Q9Y4K0 26-774): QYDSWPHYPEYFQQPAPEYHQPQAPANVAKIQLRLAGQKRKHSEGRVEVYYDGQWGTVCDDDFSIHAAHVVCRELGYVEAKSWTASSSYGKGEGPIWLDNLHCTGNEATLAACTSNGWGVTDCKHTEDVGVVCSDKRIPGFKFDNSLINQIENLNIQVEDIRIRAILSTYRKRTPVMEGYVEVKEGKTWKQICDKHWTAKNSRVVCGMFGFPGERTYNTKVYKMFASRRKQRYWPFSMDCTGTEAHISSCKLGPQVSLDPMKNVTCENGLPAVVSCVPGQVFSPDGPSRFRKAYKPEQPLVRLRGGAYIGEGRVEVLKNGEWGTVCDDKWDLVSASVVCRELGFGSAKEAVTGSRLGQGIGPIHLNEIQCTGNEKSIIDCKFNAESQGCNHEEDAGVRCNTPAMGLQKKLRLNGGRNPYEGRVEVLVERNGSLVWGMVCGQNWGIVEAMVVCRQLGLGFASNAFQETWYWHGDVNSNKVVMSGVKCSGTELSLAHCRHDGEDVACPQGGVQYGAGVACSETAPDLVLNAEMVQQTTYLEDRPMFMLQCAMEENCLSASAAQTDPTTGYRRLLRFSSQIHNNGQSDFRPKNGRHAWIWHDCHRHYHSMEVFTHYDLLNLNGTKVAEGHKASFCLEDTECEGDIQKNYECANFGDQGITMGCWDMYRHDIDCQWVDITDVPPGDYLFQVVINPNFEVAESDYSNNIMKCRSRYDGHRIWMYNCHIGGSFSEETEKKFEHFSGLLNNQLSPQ
Outline: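 Enzyme in 1.2 M urea, 50 mM sodium borate pH 8.2 with 1 μM mofegiline and 0.5 mM pargyline, preincubated 30 min at 37° C with compound (11-point CRC). Putrescine at twice KM (10 mM for LOXL2) with Amplex Red/HRP; fluorescence (ex 565, em 590) read kinetically 30 min; IC50 from slopes.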

[3] = biological target: Recombinant human MAO-B (Homo sapiens (Human), UniProt P27338); assay: Inhibition of human recombinant MAO-B; type: biochemical; details: benzylamine 100 μM
Recombinant human MAO-B, sequence (P27338 whole entry): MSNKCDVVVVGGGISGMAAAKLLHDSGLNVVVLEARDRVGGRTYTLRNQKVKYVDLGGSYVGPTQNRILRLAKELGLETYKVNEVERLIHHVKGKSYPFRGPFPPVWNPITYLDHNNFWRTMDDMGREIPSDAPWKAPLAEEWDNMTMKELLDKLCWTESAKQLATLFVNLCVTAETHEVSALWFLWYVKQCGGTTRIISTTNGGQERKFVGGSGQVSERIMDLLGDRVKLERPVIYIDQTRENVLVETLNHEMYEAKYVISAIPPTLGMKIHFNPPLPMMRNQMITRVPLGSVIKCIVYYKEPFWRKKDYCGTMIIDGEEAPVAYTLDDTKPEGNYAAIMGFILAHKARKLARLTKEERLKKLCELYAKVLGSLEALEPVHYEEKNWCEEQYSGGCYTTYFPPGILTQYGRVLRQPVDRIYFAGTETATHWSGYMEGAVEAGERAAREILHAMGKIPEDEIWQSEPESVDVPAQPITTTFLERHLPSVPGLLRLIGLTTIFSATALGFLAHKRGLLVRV
Outline: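 Recombinant human MAO-B used as enzyme source (0.06 mg/mL, stated concentration). Run as for the human SSAO/VAP-1 assay, except benzylamine substrate at 100 μM.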

[4] = system: primary fibroblasts from confirmed cases of IPF; assay: Collagen cross-link formation in in vitro fibroblastic foci model of IPF; type: cell-based, human; details: TGF-β1 stimulated foci, six weeks culture, FIGS. 7a and 7b
Description: The lung tissue of patients with idiopathic pulmonary fibrosis (IPF) is characterised by dense collections of myofibroblasts and extracellular matrix (ECM) termed ‘fibroblastic foci’. Using a novel in vitro model of fibroblastic foci (Jones et al., AJRCCM 191; 2015:A4912) the formation of lysyl oxidase (LOX) mediated collagen cross-links and the effects of the nonselective LOX inhibitor β-aminopropionitrile (BAPN) as well lysyl oxidase like-2 (LOXL2)-selective inhibitors were investigated.
Cultures of primary fibroblasts were grown out from clinical diagnostic biopsies of fibrotic lung and stored in liquid nitrogen. […]
To quantify collagen cross-links (Robins Biochem Soc Trans 2007; 35(5): 849-852; Saito et al Anal. Biochem. 1997; 253: 26-32; Sims, Avery & Bailey Methods in Molecular Biology 2000; vol 139: 11-26), cultures were treated with potassium borohydride to stabilise the reducible immature cross-links, and hydrolysed in 6N HCl at 100° C. for 16 hr. Total collagen content was assessed by hydroxyproline assay. Immature cross-links were assessed by LC/MS/MS and mature pyridinoline cross-links by ELISA. Cross-link data is expressed as moles of cross-link per mole collagen.

[5] = biological target: Bovine LOX (Bos taurus (Bovine), UniProt P33072); assay: LOX inhibition, peroxidase-coupled Amplex Red amine oxidase assay; type: biochemical; details: 30 min preincubation at 37° C., putrescine substrate
Bovine LOX, sequence (P33072 170-418): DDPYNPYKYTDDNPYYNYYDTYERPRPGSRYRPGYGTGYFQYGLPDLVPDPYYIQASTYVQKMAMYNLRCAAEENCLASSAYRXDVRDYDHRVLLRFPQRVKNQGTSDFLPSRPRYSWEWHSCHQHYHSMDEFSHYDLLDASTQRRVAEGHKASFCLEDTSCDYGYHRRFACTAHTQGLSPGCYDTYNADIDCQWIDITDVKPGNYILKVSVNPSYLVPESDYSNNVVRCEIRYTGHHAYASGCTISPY
Outline: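 Bovine LOX in 1.2 M urea, 50 mM sodium borate pH 8.2 with 1 μM mofegiline and 0.5 mM pargyline; putrescine at twice KM (e.g. 20 mM for LOX) with Amplex Red/HRP. Fluorescence (ex 565/em 590 nm) read kinetically over 30 min at 37–45 °C; IC50 from slopes.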

human recombinant SSAO/VAP-1, sequence (Q16853 34-763): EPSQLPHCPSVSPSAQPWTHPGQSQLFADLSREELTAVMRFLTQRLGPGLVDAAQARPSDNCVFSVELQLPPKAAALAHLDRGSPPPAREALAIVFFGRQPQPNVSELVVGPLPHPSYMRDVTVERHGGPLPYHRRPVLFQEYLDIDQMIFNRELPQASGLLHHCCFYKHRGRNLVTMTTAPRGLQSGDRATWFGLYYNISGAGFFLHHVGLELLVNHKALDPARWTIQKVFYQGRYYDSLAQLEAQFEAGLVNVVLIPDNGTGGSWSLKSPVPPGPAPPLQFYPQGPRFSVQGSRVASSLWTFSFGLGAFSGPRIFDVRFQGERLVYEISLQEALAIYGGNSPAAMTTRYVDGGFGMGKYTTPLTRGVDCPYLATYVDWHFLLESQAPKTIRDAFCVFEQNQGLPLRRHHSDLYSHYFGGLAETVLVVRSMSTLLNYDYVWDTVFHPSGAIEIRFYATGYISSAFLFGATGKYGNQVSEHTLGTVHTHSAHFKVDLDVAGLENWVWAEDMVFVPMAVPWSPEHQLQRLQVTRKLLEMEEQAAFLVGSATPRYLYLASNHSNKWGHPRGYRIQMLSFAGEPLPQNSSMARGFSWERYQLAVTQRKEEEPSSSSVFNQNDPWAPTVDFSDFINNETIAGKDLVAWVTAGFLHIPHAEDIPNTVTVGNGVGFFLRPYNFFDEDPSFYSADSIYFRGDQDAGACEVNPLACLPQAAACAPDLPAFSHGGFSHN

**Q.** What does the source list for N#CCCN [BAPN, β-aminopropionitrile, reference compound]?
**A.** IC50 [1]: > 3000 nM; IC50 [2]: < 1000 nM; IC50 [3]: > 3000 nM; collagen cross-link formation (immature and mature cross-links) [4]: reduced cross-link formation in a concentration dependent manner; IC50 [5]: > 1000 nM
